Laboratory results: paper PMC10041525, “New Dual Inhibitors of Bacterial Topoisomerases with Broad-Spectrum Antibacterial Activity and In Vivo Efficacy against Vancomycin-Intermediate Staphylococcus aureus” (Journal of Medicinal Chemistry, 2023)
Converted amounts (≈) assume the structure as drawn. “And” between values parts separate entries of the source, which are not always exact repeats. Identical values can stand only once. Like-named read-outs stand apart in the source and are kept apart here.

Columns and labels:
[1] = tested on: Haemophilus influenzae (n = 14); experiment: MIC broth microdilution at IHMA Europe; type: cell-based, H. influenzae; settings: for MIC: Haemophilus influenzae
E. faecium (n = 13) = experiment: MIC broth microdilution at IHMA Europe; type: cell-based; settings: Enterococcus faecium
S. pneumoniae (n = 12) = experiment: MIC broth microdilution at IHMA Europe; type: cell-based; settings: for MIC: Streptococcus pneumoniae
P. aeruginosa ATCC 27853 = experiment: IHMA QC MIC; type: cell-based
E. coli ATCC 25922 = experiment: IHMA QC MIC; type: cell-based
E. faecalis ATCC 29212 [2] = experiment: IHMA QC MIC; type: cell-based
Text: (§1) Supplement jm2c01905_si_004.xlsx, sheet "QC" | column: MIC [µg/mL]

H. influenzae ATCC 49247 = experiment: IHMA QC MIC; type: cell-based
Text: as §1

H. influenzae ATCC 49766 = experiment: IHMA QC MIC; type: cell-based
Text: as §1

S. pneumoniae ATCC 49619 [3] = experiment: IHMA QC MIC; type: cell-based
Text: as §1

E. faecalis ATCC 29212 [4] = tested on: E. faecalis ATCC 29212; set-up: method as in earlier work; settings: QC range for E. faecalis ATCC 29212, ref CLSI; cited from earlier work
S. pneumoniae ATCC 49619 [5] = tested on: S. pneumoniae ATCC 49619; set-up: method as in earlier work; settings: QC range for S. pneumoniae ATCC 49619, ref CLSI; cited from earlier work
A. baumannii DNA gyrase = A. baumannii DNA gyrase (Acinetobacter baumannii, UniProt A0ABX6CA01); experiment: gel-based supercoiling assay; type: biochemical
Chain of A. baumannii DNA gyrase (A0ABX6CA01 1-822): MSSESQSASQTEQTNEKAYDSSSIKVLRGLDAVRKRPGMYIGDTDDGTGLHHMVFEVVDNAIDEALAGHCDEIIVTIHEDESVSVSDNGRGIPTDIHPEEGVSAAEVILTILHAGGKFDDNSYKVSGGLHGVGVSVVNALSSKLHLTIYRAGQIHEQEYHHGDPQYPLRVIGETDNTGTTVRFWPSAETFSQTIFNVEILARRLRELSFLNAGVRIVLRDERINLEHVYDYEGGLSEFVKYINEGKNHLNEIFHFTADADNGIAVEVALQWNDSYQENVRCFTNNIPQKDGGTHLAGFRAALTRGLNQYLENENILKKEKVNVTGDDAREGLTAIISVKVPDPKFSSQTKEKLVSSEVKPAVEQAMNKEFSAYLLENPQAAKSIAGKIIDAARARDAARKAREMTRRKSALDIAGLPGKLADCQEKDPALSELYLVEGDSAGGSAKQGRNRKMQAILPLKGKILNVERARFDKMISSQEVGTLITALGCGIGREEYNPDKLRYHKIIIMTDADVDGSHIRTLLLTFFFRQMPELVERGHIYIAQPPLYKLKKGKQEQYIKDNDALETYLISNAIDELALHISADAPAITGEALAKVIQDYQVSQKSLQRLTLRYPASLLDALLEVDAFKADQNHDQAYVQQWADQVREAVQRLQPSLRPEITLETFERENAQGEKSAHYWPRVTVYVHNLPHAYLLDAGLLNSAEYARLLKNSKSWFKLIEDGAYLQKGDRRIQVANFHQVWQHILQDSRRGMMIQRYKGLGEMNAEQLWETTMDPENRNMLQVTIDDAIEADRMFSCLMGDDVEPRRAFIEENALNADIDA
Chain of A. baumannii DNA gyrase (A0ABX6CII0 1-904 partner): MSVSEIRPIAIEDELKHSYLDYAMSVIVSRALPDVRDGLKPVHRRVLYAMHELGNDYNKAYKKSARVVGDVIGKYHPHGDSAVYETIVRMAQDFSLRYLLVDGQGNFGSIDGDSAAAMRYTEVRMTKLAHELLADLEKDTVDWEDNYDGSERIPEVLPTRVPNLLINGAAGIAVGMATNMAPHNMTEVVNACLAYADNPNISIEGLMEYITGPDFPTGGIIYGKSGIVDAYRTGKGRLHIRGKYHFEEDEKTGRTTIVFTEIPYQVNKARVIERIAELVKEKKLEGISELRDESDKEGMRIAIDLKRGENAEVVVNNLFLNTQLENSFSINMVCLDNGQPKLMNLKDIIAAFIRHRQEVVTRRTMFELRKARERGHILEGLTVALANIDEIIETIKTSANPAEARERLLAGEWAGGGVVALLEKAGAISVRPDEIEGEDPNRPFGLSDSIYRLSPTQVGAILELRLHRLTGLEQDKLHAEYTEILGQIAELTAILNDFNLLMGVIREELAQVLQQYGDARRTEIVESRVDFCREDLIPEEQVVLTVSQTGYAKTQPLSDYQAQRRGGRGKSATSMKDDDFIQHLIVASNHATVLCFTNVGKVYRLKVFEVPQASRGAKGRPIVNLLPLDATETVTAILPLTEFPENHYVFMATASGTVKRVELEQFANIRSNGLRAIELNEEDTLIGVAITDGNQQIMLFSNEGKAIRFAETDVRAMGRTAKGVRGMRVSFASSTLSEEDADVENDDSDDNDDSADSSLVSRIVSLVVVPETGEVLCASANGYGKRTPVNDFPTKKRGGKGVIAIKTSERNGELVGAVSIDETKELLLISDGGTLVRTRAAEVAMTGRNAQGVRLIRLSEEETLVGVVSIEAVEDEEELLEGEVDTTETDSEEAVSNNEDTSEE
Protocol: In all experiments, the activity of the
enzymes was determined prior to the testing of the compound and 1 unit (U) was defined as the
amount of enzyme required to just fully supercoil or decatenate the substrate. This amount of
enzyme was initially used in determination of control inhibitor activity. These experiments were
performed in duplicate. […] The final DMSO
concentration was 1% for all assays. All measurements were performed in quadruplicates. The
condition for each reaction were as follows:
− S. aureus gyrase supercoiling assay
1 U of S. aureus gyrase was incubated with 0.5 µg of relaxed pBR322 DNA in a 30 µL reaction at
magnesium acetate, 10 mM DTT, 2 mM ATP, 500 mM potassium glutamate and 0.05 mg/mL
− S. aureus topo IV decatenation assay
1 U of S. aureus topo IV was incubated with 20 µg kDNA in a 30 µL reaction at 37 °C for 30
mM ATP, 350 mM potassium glutamate and 0.05 mg/mL albumin.
− A. baumannii gyrase supercoiling assay
1 U of A. baumannii gyrase was incubated with 0.5 µg of relaxed pBR322 DNA in a 30 µL reaction
blue), before being loaded on a 1.0% TAE gel run at 80V for 2 hours. Bands were visualised by
ethidium bromide staining for 20 minutes and destaining for 20 minutes. Gels were scanned using
documentation equipment (GeneGenius, Syngene, Cambridge, UK) and % inhibition levels were
measured by determining the relative fluorescence of the supercoiled band using gel scanning
software. […]

[6] = tested on: S. aureus (MRSA) ATCC 43300; experiment: MIC broth microdilution (CLSI); type: cell-based; settings: Staphylococcus aureus
In short: (§2)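 Compounds were serially diluted in cation-adjusted Mueller Hinton broth 2 according to CLSI guidance, and each well received 5 × 10^4 cells. After 18 h at 37 °C and 150 rpm, absorbance at 600 nm defined the MIC as a triplicate-mean increment below 1.5-fold background.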

[7] = tested on: S. aureus (VISA) ATCC 700699; experiment: MIC broth microdilution (CLSI); type: cell-based; settings: Staphylococcus aureus; read-out: MIC
In short: as §2

In the case of `CN[C@H](CC(C)C)C(=O)N[C@H]1C(=O)N[C@@H](CC(N)=O)C(=O)N[C@H]2C(=O)N[C@H]3C(=O)N[C@H](C(=O)N[C@H](C(=O)O)c4cc(O)cc(O)c4-c4cc3ccc4O)[C@H](O)c3ccc(c(Cl)c3)Oc3cc2cc(c3O[C@@H]2O[C@H](CO)[C@@H](O)[C@H](O)[C@H]2O[C@H]2C[C@](C)(N)[C@H](O)[C@H](C)O2)Oc2ccc(cc2Cl)[C@H]1O` [Vancomycin, vancomycin], the “No. of isolates at MIC” value [1] is reported as 5 and 9, the MIC ([1]; H. influenzae IHMA N° 1227715) is reported as greater than 32 µg/mL and the MIC ([1]; H. influenzae IHMA N° 1241620) is reported as greater than 32 µg/mL. For the same compound, the MIC ([1]; H. influenzae IHMA N° 1244149) was 32 µg/mL (≈ 22.1 µM), the MIC ([1]; H. influenzae IHMA N° 1249803) was greater than 32 µg/mL and the MIC ([1]; H. influenzae IHMA N° 1254355) was 32 µg/mL (≈ 22.1 µM). The MIC ([1]; H. influenzae IHMA N° 1258580) was greater than 32 µg/mL, the MIC ([1]; H. influenzae IHMA N° 1262734) was 32 µg/mL (≈ 22.1 µM) and the MIC ([1]; H. influenzae IHMA N° 1272723) was greater than 32 µg/mL. The MIC ([1]; H. influenzae IHMA N° 1286846) was greater than 32 µg/mL, the MIC ([1]; H. influenzae IHMA N° 1337530) was greater than 32 µg/mL and the MIC ([1]; H. influenzae IHMA N° 1440085) was greater than 32 µg/mL. The MIC ([1]; H. influenzae IHMA N° 1479509) was 32 µg/mL (≈ 22.1 µM), the MIC ([1]; H. influenzae IHMA N° 1952952) was greater than 32 µg/mL and the MIC ([1]; H. influenzae IHMA N° 2047461) was 32 µg/mL (≈ 22.1 µM). It also gave an MIC (E. faecium (n = 13); E. faecium IHMA N° 1764866) of 16 µg/mL (≈ 11 µM), an MIC (E. faecium (n = 13); E. faecium IHMA N° 1765436) of 16 µg/mL (≈ 11 µM) and an MIC (E. faecium (n = 13); E. faecium IHMA N° 1765746) greater than 32 µg/mL. The MIC (E. faecium (n = 13); E. faecium IHMA N° 1893573) was 32 µg/mL (≈ 22.1 µM), the MIC (E. faecium (n = 13); E. faecium IHMA N° 1893846) was greater than 32 µg/mL and the MIC (E. faecium (n = 13); E. faecium IHMA N° 1893942) was 32 µg/mL (≈ 22.1 µM). It also gave an MIC (E. faecium (n = 13); E. faecium IHMA N° 1894055) greater than 32 µg/mL, an MIC (E. faecium (n = 13); E. faecium IHMA N° 1897027) greater than 32 µg/mL and an MIC (E. faecium (n = 13); E. faecium IHMA N° 1897101) greater than 32 µg/mL. It also gave an MIC (E. faecium (n = 13); E. faecium IHMA N° 1904592) greater than 32 µg/mL, an MIC (E. faecium (n = 13); E. faecium IHMA N° 2075051) of 16 µg/mL (≈ 11 µM) and an MIC (E. faecium (n = 13); E. faecium IHMA N° 2077718) greater than 32 µg/mL. For the same compound, the MIC (E. faecium (n = 13); E. faecium IHMA N° 2083787) was greater than 32 µg/mL, the “No. of isolates at MIC” value (S. pneumoniae (n = 12)) was 5 and 6 and the “Cumulative % at MIC” value (S. pneumoniae (n = 12); MIC 1 µg/mL) was 100.0%. For the same compound, the “No. of isolates at MIC” value (S. pneumoniae (n = 12); MIC 1 µg/mL) was 1, the MIC (S. pneumoniae (n = 12); S. pneumoniae IHMA N° 1775387) was 0.25 µg/mL (≈ 0.173 µM) and the MIC (S. pneumoniae (n = 12); S. pneumoniae IHMA N° 1776057) was 0.25 µg/mL (≈ 0.173 µM). It also gave an MIC (S. pneumoniae (n = 12); S. pneumoniae IHMA N° 1785617) of 0.12 µg/mL (≈ 0.0828 µM), an MIC (S. pneumoniae (n = 12); S. pneumoniae IHMA N° 1800765) of 0.12 µg/mL (≈ 0.0828 µM) and an MIC (S. pneumoniae (n = 12); S. pneumoniae IHMA N° 1811259) of 0.12 µg/mL (≈ 0.0828 µM). For the same compound, the MIC (S. pneumoniae (n = 12); S. pneumoniae IHMA N° 1831562) was 0.25 µg/mL (≈ 0.173 µM), the MIC (S. pneumoniae (n = 12); S. pneumoniae IHMA N° 1902609) was 0.25 µg/mL (≈ 0.173 µM) and the MIC (S. pneumoniae (n = 12); S. pneumoniae IHMA N° 1979675) was 0.25 µg/mL (≈ 0.173 µM). It also gave an MIC (S. pneumoniae (n = 12); S. pneumoniae IHMA N° 1991963) of 1 µg/mL (≈ 0.69 µM), an MIC (S. pneumoniae (n = 12); S. pneumoniae IHMA N° 2057487) of 0.12 µg/mL (≈ 0.0828 µM) and an MIC (S. pneumoniae (n = 12); S. pneumoniae IHMA N° 2073087) of 0.25 µg/mL (≈ 0.173 µM). The MIC (S. pneumoniae (n = 12); S. pneumoniae IHMA N° 2117109) was 0.12 µg/mL (≈ 0.0828 µM), the MIC (P. aeruginosa ATCC 27853; Pseudomonas aeruginosa, ATCC27853) was greater than 32 µg/mL and the MIC (P. aeruginosa ATCC 27853; QC strain P. aeruginosa ATCC 27853, test date 2021-11-26) was greater than 32 µg/mL. For the same compound, the MIC (E. coli ATCC 25922; Escherichia coli, ATCC25922) was greater than 32 µg/mL, the MIC (E. coli ATCC 25922; QC strain E. coli ATCC 25922, test date 2021-11-26) was greater than 32 µg/mL and the MIC (E. faecalis ATCC 29212 [2]; Enterococcus faecalis, ATCC29212) was 2 µg/mL (≈ 1.38 µM). It also gave an MIC (E. faecalis ATCC 29212 [2]; QC strain E. faecalis ATCC 29212, test date 2021-11-26) of 2 µg/mL (≈ 1.38 µM), an MIC (H. influenzae ATCC 49247; Haemophilus influenzae, ATCC49247) greater than 32 µg/mL and an MIC (H. influenzae ATCC 49247; QC strain H. influenzae ATCC 49247, test date 2021-11-26) greater than 32 µg/mL. The MIC (H. influenzae ATCC 49766; Haemophilus influenzae, ATCC49766) was greater than 32 µg/mL, the MIC (H. influenzae ATCC 49766; QC strain H. influenzae ATCC 49766, test date 2021-11-26) was greater than 32 µg/mL and the MIC (S. pneumoniae ATCC 49619 [3]; QC strain S. pneumoniae ATCC 49619, test date 2021-11-26) was 0.12 µg/mL (≈ 0.0828 µM). The MIC (S. pneumoniae ATCC 49619 [3]; Streptococcus pneumoniae, ATCC49619) was 0.12 µg/mL (≈ 0.0828 µM), the “MIC, CLSI Range” value (E. faecalis ATCC 29212 [4]) was 1 to 4 µg/mL and the “MIC, CLSI Range” value (S. pneumoniae ATCC 49619 [5]) was 0,12 - 0,5 µg/mL.

`CO[C@@H]1[C@@H](OC(N)=O)[C@@H](O)[C@H](Oc2ccc3c(O)c(NC(=O)c4ccc(O)c(CC=C(C)C)c4)c(=O)oc3c2C)OC1(C)C` [novobiocin] gave an IC50 (A. baumannii DNA gyrase) of 2.17 ± 0.16 nM, an MIC [6] of 0.125 µg/mL and an MIC [7] of 0.0312 µg/mL.
